Earlier results on 3 compounds are cited in patent publication US9163009B2, “Salts of raltegravir” (priority 2011, dated 2015).

For data set [1] the following is noted: in vivo.
For data set [2] the following is noted: water.

Regarding `Cc1nnc(C(=O)NC(C)(C)c2nc(C(=O)NCc3ccc(F)cc3)c([O-])c(=O)n2C)o1.[K+]` [Form 1], in data set [1], the bioavailability over raltegravir entry is listed as “superior bioavailability”.

In the case of `Cc1nnc(C(=O)NC(C)(C)c2nc(C(=O)NCc3ccc(F)cc3)c(O)c(=O)n2C)o1` [Raltegravir, N-(4-fluorobenzyl)-5-hydroxy-1-methyl-2-(1-methyl-1-{[(5-methyl-1,3,4-oxadiazol-2-yl)carbonyl]amino}ethyl)-6-oxo-1,6-dihydropyrimidine-4-carboxamide], the aqueous solubility entry in data set [2] was “poor”.

Take `Cc1nnc(C(=O)NC(C)(C)c2nc(C(=O)NCc3ccc(F)cc3)c([O-])c(=O)n2C)o1.[K+]` [potassium salt of raltegravir]: the aqueous solubility entry in data set [2] is given as “significantly more soluble”.
